{"source": "patent US20250346643A1", "about": "“TROPOMYOSIN KINASE RECEPTOR (TRK) LIGANDS AS THERAPEUTICS TO SUPPORT LIVER REGENERATION” (Vanderbilt University, priority 2024, published 2025)", "key": {"[1]": {"tested_on": "HepG2 cells", "experiment": "Cell proliferation assay (CellTiter-Glo) in HepG2 cells", "format": "cell-based, human", "conditions": "NTF3 20 ng/ml, HepG2 (FIG. 8G-H)", "description": "Cell lines. Human HepG2 (ATCC HB-8065) were maintained in MEM media with 10% FBS and the mouse hepatocyte cell line AML12 (ATCC, Manassas, VA; CRL-2254) in DMEM/F12 media supplemented with dexamethasone (40 ng/ml) and Insulin-Transferrin-Selenium (Gibco, Waltham, MA; 41400045), containing 10% FBS and 1% penicillin and streptomycin. JS1 (RRID: CVCL_C7PL), LX2 (RRID: CVCL_5792, MilliporeSigma, Burlington, MA; SCC064) and TWNT4 (RRID: CVCL_W296) cells were cultured in DMEM supplemented with 10% FBS. 293T cells (ATCC, Manassas, VA; CRL-3216) were cultured in DMEM supplemented with 10% FBS.\nCell proliferation assays. Primary mouse hepatocytes, HepG2 or AML 12 cells were grown in opaque-walled 96-well plates. NTF3 (final concentration 20 ng/ml) (STEMCELL Technologies, Vancouver, Canada; cat. 78074) and/or Loxo-195 (final concentration 5 nM) (Selleckchem, Houston, TX; S8636) were added into complete growth media without L-glutamine. Primary mouse hepatocytes were also grown in serum-free William's E media without supplements. Cells were analyzed by CellTiter-Glo® (Promega G7570, Madison, WI) which detects the number of viable cells on day 0 to day 5 by on detection systems GloMax® (Promega) or Bioteck Synergy H1 (Agilent, Santa Clara, CA). Mouse recombinant HGF (Abcam, Cambridge, UK; ab281797) was added to cell culture media at a final concentration 5 ng/ml. […]"}, "[2]": {"tested_on": "liver regeneration after partial hepatectomy", "format": "in vivo, mouse", "description": "Partial hepatectomy. All surgeries were performed per the National Institutes of Health recommendations contained in the Guide for the Care and Use of Laboratory. Mice were anesthetized with isoflurane and received preoperative extended-release buprenorphine subcutaneous (s.c.) for analgesia and eye ointment for protection. […] The evisceration of the median and left lateral lobes allowed suture ligation and ˜70% hepatectomy. Skin and abdominal muscles were closed in a two-step procedure. Mice were euthanized 1 h, 24 h, 2 days, 3 days, and 4 days after partial hepatectomy, and tissues were collected for processing. To test if recombinant NTF3 promotes liver regeneration, mice were injected intravenous (i.v.) with recombinant NTF3 (STEMCELL Technologies, Vancouver, Canada; catalog no. 78074, lot nos. 1000070683 and 1000077434) diluted in sterile 0.9% saline (0.9% NaCl) or vehicle only at approximately 1 hour prior to partial hepatectomy. Mice were then injected i.v. once per day with recombinant NTF3 or vehicle at 20 ng/g body weight until sacrifice. Lyophilized NTF3 was solubilized in 0.1% BSA/PBS (Sigma-Aldrich, St. Louis, MO; A3059) and stored at −80° C. until use.\nSerum chemistry. Whole blood was collected in blood collection tubes supplemented with lithium heparin (BD vacutainer, Franklin Lakes, NJ; Cat.366664). Blood was centrifuged at 4000 g for 15 min and the plasma collected and stored at −80° C. until analysis. Plasma was analyzed on a VetScan® vs2 (Abaxis, Union City, CA) using mammalian liver profile analysis discs (Abaxis, Union City, CA; 500-0040) according to the manufacturer's instructions.\nImmunohistochemistry. For immunohistochemistry, formalin-fixed paraffin-embedded (FFPE) sections were cut at a 4-μm thickness, and slides were incubated at 65° C. for 30 min. Slides were deparaffinized in Histo-Clear® (National Diagnostics, Charlotte, NC; HS2001GLL) and rehydrated by an ethanol gradient. Heat antigen retrieval was performed in 10 mM sodium citrate (pH 6.0) in a pressure cooker (Cuisinart®, CPC-600C), for 20 min at high pressure, natural pressure release for 30 min, and cooled at room temperature for 30 min. Endogenous peroxidase quenching was performed with 1.5% hydrogen peroxide (Sigma-Aldrich, St. Louis, MO; H1009) for 20 min, and slides were washed twice in PBS. Blocking was performed for 30 min with Protein Block, Serum-free (Agilent, Santa Clara, CA; X090930-2). The primary antibody was diluted in antibody diluent (Agilent, Santa Clara, CA; S080983-2) and applied to the slides in a wet chamber overnight at 4° C. After two washes in PBS, slides were incubated with the appropriate secondary antibody for 30 min, followed by two washes in PBS. […] The same reveal time was then used on all experimental slides. Slides were stained with hematoxylin (Sigma-Aldrich, St. Louis, MO; GHS332) for 30 s, washed gently in lukewarm tap water for 5 min, and washed twice in distilled water, followed by two washes in PBS (pH 7.4). Slides were washed in increasing ethanol/water gradients, followed by three washes in Histo-Clear®. Whole-slide scans for subsequent analyses and publishing were obtained using an SCN400 slide scanner (Leica, Wetzlar, Germany). Whole-slide images were processed and annotated in QuPath 0.5.1."}, "[3]": {"conditions": "2 days after partial hepatectomy, NTF3 20 ng/g i.v. once per day"}, "[4]": {"conditions": "4 days after partial hepatectomy, NTF3 20 ng/g i.v. once per day"}}, "note": "Where two headings read alike, the source gives them in different places.", "data": [{"substance": "NTF3: neurotrophin-3, recombinant protein; HSC-derived hepatocyte mitogen, ligand of TRKA, TRKB, TRKC", "values": [{"measurement": "cell proliferation", "setting": "[1]", "value": "greatly stimulated cell proliferation"}, {"measurement": "liver to body weight ratio vs vehicle", "setting": "[2]; [3]", "value": "similar"}, {"measurement": "number of Ki67+ hepatocytes vs vehicle", "setting": "[2]; [3]", "value": "significantly increased"}, {"measurement": "number of Ki67+ hepatocytes vs vehicle", "setting": "[2]; 4 days after partial hepatectomy", "value": "increased number"}, {"measurement": "liver to body weight ratio vs controls", "setting": "[2]; [4]", "value": "significantly increased"}, {"measurement": "relative increase of liver to body weight ratio compared to controls", "setting": "[2]; [4]", "value": "10-23%"}, {"measurement": "adverse effects", "setting": "[2]; mouse, in vivo", "value": "no adverse effects"}, {"measurement": "serum ALP vs vehicle", "setting": "[2]; mouse, in vivo", "value": "similar"}, {"measurement": "serum ALT vs vehicle", "setting": "[2]; mouse, in vivo", "value": "similar"}, {"measurement": "serum albumin vs vehicle", "setting": "[2]; mouse, in vivo", "value": "similar"}]}]}
